Experimental data reported in patent US20220227707A1, “COMPOUNDS AND COMPOSITIONS FOR TREATING CONDITIONS ASSOCIATED WITH NLRP ACTIVITY” (Novartis AG, priority 2019, published 2022).

test system: IL-1β production in PMA-differentiated THP-1 cells; experiment: IL-1β production in PMA-differentiated THP-1 cells stimulated with gramicidin (hTHP-1 assay); assay type: cell-based, human; conditions: Average IC50, hTHP-1 assay containing 2% fetal bovine serum; Table 10, class symbols
Procedure: Procedure 1: IL-1β Production in PMA-Differentiated THP-1 Cells Stimulated with Gramicidin
THP-1 cells were purchased from the American Type Culture Collection and sub-cultured according to instructions from the supplier. Cells were cultured in complete RPMI 1640 (containing 10% heat inactivated FBS, penicillin (100 units/ml) and streptomycin (100 μg/ml)), and maintained in log phase prior to experimental setup. Prior to the experiment, compounds were dissolved in dimethyl sulfoxide (DMSO) to generate a 30 mM stock. The compound stock was first pre-diluted in DMSO to 3, 0.34, 0.042 and 0.0083 mM intermediate concentrations and subsequently spotted using Echo550 liquid handler into an empty 384-well assay plate to achieve desired final concentration (e.g. 100, 33, 11, 3.7, 1.2, 0.41, 0.14, 0.046, 0.015, 0.0051, 0.0017 μM). DMSO was backfilled in the plate to achieve a final DMSO assay concentration of 0.37%. The plate was then sealed and stored at room temperature until required.
THP-1 cells were treated with PMA (Phorbol 12-myristate 13-acetate) (20 ng/ml) for 16-18 hours. On the day of the experiment the media was removed and adherent cells were detached with trypsin for 5 minutes. Cells were then harvested, washed with complete RPMI 1640, spun down, and resuspended in RPMI 1640 (containing 2% heat inactivated FBS, penicillin (100 units/ml) and streptomycin (100 μg/ml). The cells were plated in the 384-well assay plate containing the spotted compounds at a density of 50,000 cells/well (final assay volume 50 μl). Cells were incubated with compounds for 1 hour and then stimulated with gramicidin (5 μM) (Enzo) for 2 hours. Plates were then centrifuged at 340 g for 5 min. Cell free supernatant ([…]) was collected using a 96-channel PlateMaster (Gilson) and the production of IL-1β was evaluated by HTRF (cisbio). The plates were incubated for 18 h at 4° C. and read using the preset HTRF program (donor emission at 620 nm, acceptor emission at 668 nm) of the SpectraMax i3x spectrophotometer (Molecular Devices, software SoftMax 6). A vehicle only control and a dose titration of CRID3 (100-0.0017 μM) were run concurrently with each experiment.
Procedure 2: […] Production in PMA-Differentiated THP-1 Cells Stimulated with Gramicidin
THP-1 cells were purchased from the American Type Culture Collection and sub-cultured according to instructions from the supplier. Prior to experiments, cells were cultured in complete RPMI 1640 (containing 10% heat inactivated FBS, penicillin (100 units/ml) and streptomycin (100 μg/ml)), and maintained in log phase prior to experimental setup. Prior to the experiment THP-1 were treated with PMA (Phorbol 12-myristate 13-acetate) (20 ng/ml) for 16-18 hours. Compounds were dissolved in dimethyl sulfoxide (DMSO) to generate a 30 mM stock. On the day of the experiment the media was removed and adherent cells were detached with trypsin for 5 minutes. Cells were then harvested, washed with complete RPMI 1640, spun down, resuspended in RPMI 1640 (containing 2% heat inactivated FBS, penicillin (100 units/ml) and streptomycin (100 μg/ml). The cells were plated in a 384-well plate at a density of 50,000 cells/well (final assay volume 50 μl). Compounds were first dissolved in assay medium to obtain a 5× top concentration of 500 μM. 10 step dilutions (1:3) were then undertaken in assay medium containing 1.67% DMSO. 5× compound solutions were added to the culture medium to achieve desired final concentration (e.g. 100, 33, 11, 3.7, 1.2, 0.41, 0.14, 0.046, 0.015, 0.0051, 0.0017 μM). Final DMSO concentration was at 0.37%. Cells were incubated with compounds for 1 hour and then stimulated with gramicidin (5 μM) (Enzo) for 2 hours. Plates were then centrifuged at 340 g for 5 min. Cell free supernatant (40 μL) was collected using a 96-channel PlateMaster (Gilson) and the production of IL-1β was evaluated by HTRF (cisbio). A vehicle only control and a dose titration of CRID3 (100-0.0017 μM) were run concurrently with each experiment. […]

IC50 | Structure (SMILES)
5 to 30 µM | CN(C)CCCS(N)(=O)=NC(=O)Nc1c2c(cc3c1CCC3)CCC2 (stereo not drawn) [Compound 144]
1 to 5 µM | CC(CN(C)C)CS(N)(=O)=NC(=O)Nc1c2c(cc3c1CCC3)CCC2 (stereo not drawn) [Compound 125, 3-(dimethylamino)-N′-((1,2,3,5,6,7-hexahydro-s-indacen-4-yl)carbamoyl)-2-methylpropane-1-sulfonimidamide]
5 to 30 µM | NS(=O)(=NC(=O)Nc1c2c(cc3c1CCC3)CCC2)C1CC1 (single isomer, unassigned) [Compound 155]

same assay, conditions: Average IC50, hTHP-1 assay containing 2% fetal bovine serum; Table 10, numeric values

IC50 | Structure (SMILES)
> 30 µM | CN1CCC(S(N)(=O)=NC(=O)Nc2c3c(cc4c2CCC4)CCC3)CC1 (stereo not drawn) [Compound 140]
> 30 µM | CC(C)c1cc(F)cc(C(C)C)c1CC(=O)N=S(N)(=O)C1CC1 (stereo not drawn) [Compound 309]
> 30 µM | NS(=O)(=NC(=O)Nc1c2c(cc3c1CCC3)CCC2)C1CCCCC1 (stereo not drawn) [Compound 150]
> 30 µM | CN(C)CC1(S(N)(=O)=NC(=O)Nc2c3c(cc4c2CCC4)CCC3)CC1 (stereo not drawn) [Compound 160]
> 30 µM | CC(C)c1cc(F)cc(C(C)C)c1CC(=O)N=S(N)(=O)CCCN(C)C (stereo not drawn) [Compound 303]
> 30 µM | CN1CCC(S(N)(=O)=NC(=O)Nc2c3c(cc4c2CCC4)CCC3)CC1 (stereo not drawn) [Compound 138]
> 30 µM | CC(C)c1cc(F)cc(C(C)C)c1CC(=O)N=S(N)(=O)C1CCCC1 (stereo not drawn) [Compound 305]

same assay, conditions: Homo sapiens, THP-1, Average IC50, hTHP-1 assay containing 2% fetal bovine serum; Table 3B, class symbols

IC50 | Structure (SMILES)
5 to 30 µM | CC(C)c1cc(C#N)cc(C(C)C)c1CC(=O)NS(=O)(=O)N1CCC(C(C)(C)O)C1 (stereo not drawn) [Compound 203B]
5 to 30 µM | CC(C)c1cc(C#N)cc(C(C)C)c1CC(=O)NS(=O)(=O)N1CCC(CN(C)C)CC1 [Compound 202B, 2-(4-cyano-2,6-diisopropylphenyl)-N-((4-((dimethylamino)methyl)piperidin-1-yl)sulfonyl) acetamide]

same assay, conditions: Homo sapiens, THP-1, Average IC50, hTHP-1 assay containing 2% fetal bovine serum; Table 10, class symbols

IC50 | Structure (SMILES)
1 to 5 µM | CN(C)Cc1ccc(CS(N)(=O)=NC(=O)Nc2c3c(cc4c2CCC4)CCC3)cc1 (single isomer, unassigned) [Compound 106]
5 to 30 µM | CS(N)(=O)=NC(=O)Nc1c2c(cc3c1CCC3)CCC2 (single isomer, unassigned) [Compound 117]
5 to 30 µM | CN1CCC(CS(N)(=O)=NC(=O)Nc2c3c(cc4c2CCC4)CCC3)C1 (single isomer, unassigned) [Compound 114]
5 to 30 µM | CC(CCc1ccccc1)S(N)(=O)=NC(=O)Nc1c2c(cc3c1CCC3)CCC2 (stereo not drawn) [Compound 109]
5 to 30 µM | NS(=O)(=NC(=O)Nc1c2c(cc3c1CCC3)CCC2)C1CCCC1 (stereo not drawn) [Compound 153]
5 to 30 µM | CC(C)c1cc(F)cc(C(C)C)c1CC(=O)NS(=O)(=O)Cc1ccc(C(C)(C)O)cc1 [Compound 506]
5 to 30 µM | CS(N)(=O)=NC(=O)Nc1c2c(cc3c1CCC3)CCC2 (stereo not drawn) [Compound 115, N′-((1,2,3,5,6,7-hexahydro-s-indacen-4-yl)carbamoyl) methane-sulfonimidamide]
1 to 5 µM | CN(C)Cc1ccc(CS(N)(=O)=NC(=O)Nc2c3c(cc4c2CCC4)CCC3)cc1 (stereo not drawn) [Compound 104, 1-(4-((dimethylamino)methyl)pheny1)-N′-((1,2,3,5,6,7-hexahydro-s-indacen-4-yl)carbamoyl) methane-sulfonimidamide]
0.2 to 1 µM | CC1(S(N)(=O)=NC(=O)Nc2c3c(cc4c2CCC4)CCC3)CC1 (stereo not drawn) [Compound 162]
5 to 30 µM | CN(C)CCCC(=O)NS(C)(=O)=NC(=O)Nc1c2c(cc3c1CCC3)CCC2 (single isomer, unassigned) [Compound 119, 4-(dimethylamino)-N—(N-((1,2,3,5,6,7-hexahydro-s-indacen-4-yl)carbamoyl)-S-methylsulfonimidoyl)butanamide]
1 to 5 µM | CC(CN(C)C)CS(N)(=O)=NC(=O)Nc1c2c(cc3c1CCC3)CCC2 (single isomer, unassigned) [Compound 122, 3-(dimethylamino)-N′-((1,2,3,5,6,7-hexahydro-s-indacen-4-yl)carbamoyl)-2-methylpropane-1-sulfonimidamide]
5 to 30 µM | CC(=O)NS(C)(=O)=NC(=O)Nc1c2c(cc3c1CCC3)CCC2 (stereo not drawn) [Compound 111]
5 to 30 µM | NS(=O)(=NC(=O)Nc1c2c(cc3c1CCC3)CCC2)C1Cc2ccccc2C1 (single isomer, unassigned) [Compound 129]
5 to 30 µM | CN(C)Cc1cccc(CS(N)(=O)=NC(=O)Nc2c3c(cc4c2CCC4)CCC3)c1 (stereo not drawn) [Compound 164, 1-(3-((dimethylamino)methyl)pheny1)-N′-((1,2,3,5,6,7-hexahydro-s-indacen-4-yl)carbamoyl) methane-sulfonimidamide]

same assay, conditions: Homo sapiens, THP-1, Average IC50, hTHP-1 assay containing 2% fetal bovine serum; Table 10, numeric values

IC50 | Structure (SMILES)
> 100 µM | CC(C)c1cc(F)cc(C(C)C)c1CC(=O)NS(=O)(=O)Cc1cccnc1 [Compound 522]
> 30 µM | CN1CCC(S(N)(=O)=NC(=O)Nc2c3c(cc4c2CCC4)CCC3)CC1 (stereo not drawn) [Compound 137]
> 30 µM | CC(C)c1cc(F)cc(C(C)C)c1CC(=O)N=S(N)(=O)C1CCCC1 (stereo not drawn) [Compound 304]
> 30 µM | NS(=O)(=NC(=O)Nc1c2c(cc3c1CCC3)CCC2)C1CCCC1 (stereo not drawn) [Compound 151]
> 100 µM | CC(C)c1cc(F)cc(C(C)C)c1CC(=O)NS(=O)(=O)CCC(=O)O [Compound 515]
> 30 µM | NS(=O)(=NC(=O)Nc1c2c(cc3c1CCC3)CCC2)C1CCCCC1 (stereo not drawn) [Compound 147]
> 100 µM | CC(C)c1cc(F)cc(C(C)C)c1CC(=O)NS(=O)(=O)Cc1ccccc1 [Compound 511]
> 30 µM | COC(=O)CCCS(=O)(=O)NC(=O)Cc1c(C(C)C)cc(F)cc1C(C)C [Compound 513]
> 30 µM | CS(N)(=O)=NC(=O)Nc1c2c(cc3c1CCC3)CCC2 (single isomer, unassigned) [Compound 116]
> 30 µM | NS(=O)(=NC(=O)Nc1c2c(cc3c1CCC3)CCC2)C1Cc2ccccc2C1 (single isomer, unassigned) [Compound 130]
> 30 µM | CC(C)c1cc(F)cc(C(C)C)c1CC(=O)NS(=O)(=O)Cc1cnn(C)c1 [Compound 528]
> 30 µM | CC(C)c1cc(F)cc(C(C)C)c1CC(=O)N=S(N)(=O)CCCN(C)C (stereo not drawn) [Compound 301]
> 100 µM | COC(=O)CS(=O)(=O)NC(=O)Cc1c(C(C)C)cc(F)cc1C(C)C [Compound 501]
> 30 µM | CC(C)c1cc(F)cc(C(C)C)c1CC(=O)N=S(N)(=O)C1CC1 (stereo not drawn) [Compound 308]
> 30 µM | CC(C)c1cc(F)cc(C(C)C)c1CC(=O)NS(=O)(=O)Cc1cc(-c2ccccc2)no1 [Compound 519]
> 30 µM | CN(C)S(C)(=O)=NC(=O)Nc1c2c(cc3c1CCC3)CCC2 (single isomer, unassigned) [Compound 101, N′-((1,2,3,5,6,7-hexahydro-s-indacen-4-yl)carbamoyl)-N,N-dimethylmethanesulfonimidamide]
> 30 µM | CN(C)CC1(S(N)(=O)=NC(=O)Nc2c3c(cc4c2CCC4)CCC3)CC1 (stereo not drawn) [Compound 158]
> 100 µM | CC(C)c1cc(F)cc(C(C)C)c1CC(=O)NS(=O)(=O)Cc1cccc(CN)c1 [Compound 508]
> 30 µM | CN1CCC(S(N)(=O)=NC(=O)Nc2c3c(cc4c2CCC4)CCC3)C1 (single isomer, unassigned) [Compound 134, N′-((1,2,3,5,6,7-hexahydro-s-indacen-4-yl)carbamoyl)-1-methylpyrrolidine-3-sulfonimidamide]
